Converted amounts (≈) assume the structure as drawn.
Key:
Assay type in all cases: cell-based
[1] = test system: Staphylococcus aureus MSQS (methicillin sensitive and quinolone sensitive); experiment: MIC by agar dilution, Staphylococcus aureus MSQS; conditions: 10^4 CFU/spot, 37° C., 24 hours
Experimental: (§1) The following results were obtained on a standard in-vitro test system. The activity is described in terms of the minimum inhibitory concentration (MIC) determined by the agar-dilution technique with an inoculum size of 10^4 CFU/spot. Typically, compounds are active in the range 0.01 to 256 μg/ml.
(§2) Staphylococci were tested on agar, using an inoculum of 10^4 CFU/spot and an incubation temperature of 37° C. for 24 hours—standard test conditions for the expression of methicillin resistance.

[2] = test system: Staphylococcus aureus MRQR (methicillin resistant and quinolone resistant); experiment: MIC by agar dilution, Staphylococcus aureus MRQR; conditions: 10^4 CFU/spot, 37° C., 24 hours
Experimental: as §1, §2

Streptococcus pneumoniae = experiment: MIC by agar dilution, Streptococcus pneumoniae; conditions: agar with 5% defibrinated horse blood, 10^4 CFU/spot, 37° C., 5% carbon dioxide, 48 hours
Experimental: as §1
(§3) Streptococci and enterococci were tested on agar supplemented with 5% defibrinated horse blood, an inoculum of 10^4 CFU/spot and an incubation temperature of 37° C. in an atmosphere of 5% carbon dioxide for 48 hours—blood is required for the growth of some of the test organisms. Fastidious Gram negative organisms were tested in Mueller-Hinton broth, supplemented with hemin and NAD, grown aerobically for 24 hours at 37° C., and with an innoculum of 5×10^4 CPU/well.

Haemophilus influenzae = experiment: MIC in Mueller-Hinton broth, Haemophilus influenzae; conditions: Mueller-Hinton broth with hemin and NAD, aerobic, 24 hours, 37° C.
Experimental: as §1, §3

Moraxella catarrhalis = experiment: MIC in Mueller-Hinton broth, Moraxella catarrhalis; conditions: Mueller-Hinton broth with hemin and NAD, aerobic, 24 hours, 37° C.
Experimental: as §1, §3

Enterococcus faecium = experiment: MIC by agar dilution, Enterococcus faecium; conditions: agar with 5% defibrinated horse blood, 10^4 CFU/spot, 37° C., 5% carbon dioxide, 48 hours
Experimental: as §1, §3

[3] = test system: Linezolid Reistant Streptococcus pneumoniae; experiment: MIC by agar dilution, linezolid resistant Streptococcus pneumoniae; conditions: agar with 5% defibrinated horse blood, 10^4 CFU/spot, 37° C., 5% carbon dioxide, 48 hours
Experimental: as §1, §3

- MIC [1]: 2 µg/mL (≈ 4.57 µM)
- MIC [2]: 2 µg/mL (≈ 4.57 µM)
- MIC (Streptococcus pneumoniae): 0.5 µg/mL (≈ 1.14 µM)
- MIC (Haemophilus influenzae): > 64 µg/mL
- MIC (Moraxella catarrhalis): 0.5 µg/mL (≈ 1.14 µM)
- MIC (Enterococcus faecium): 1 µg/mL (≈ 2.29 µM)
- MIC [3]: 4 µg/mL (≈ 9.14 µM)
Compound: Cn1nnnc1-c1ccc(-c2ccc(N3CC(CNC(=O)C4CC4)OC3=O)cc2F)cn1 (stereo in doubt) [Example 2, N-[[(5R)-3-[3-Fluoro-4-[6-(1-methyl-1H-1,2,3,4-tetrazol-5-yl)-3-Pyridinyl]phenyl]oxazolidin-2-on-5-yl]methyl]cycloproanecarboxamide]

Reference: patent US20060052399A1, “Oxazolidinone derivatives as antibacterial agents” (AstraZeneca AB, priority 2002, published 2006)
